Read-outs that look alike come from different tables or passages of the source.
Molecular target: SARS-CoV-2 Papain-Like Protease (PLpro) (Severe acute respiratory syndrome coronavirus 2 (2019-nCoV) (SARS-CoV-2), UniProt P0DTD1)
Test: biochemical
Conditions: read-out: PLpro IC50
[1] = PLpro enzymatic fluorescence assay, class symbols
[2] = SARS-CoV-2 PLpro enzymatic fluorescence assay

Row | SMILES | IC50 [1] [µM] | IC50 [2] [µM]
1 | Cc1ccc(-c2cc(C3(NC(=O)c4cc(OCC5CCN5C)ccc4C)CC3)c3ccccc3c2)s1 (stereo not shown) [Compound 493, 2-Methyl-5-((1-methylazetidin-2-yl)methoxy)-N-(1-(3-(5-methylthiophen-2-yl)naphthalen-1-yl)cyclopropyl)benzamide] | < 0.1 | 
2 | Cc1ccc(OCC2CCN2C)cc1C(=O)NC1(c2cc(N(C)C)cc3ccccc23)CC1 (stereo not shown) [Compound 495, N-(1-(3-(Dimethylamino)naphthalen-1-yl)cyclopropyl)-2-methyl-5-((1-methylazetidin-2-yl)methoxy)benzamide] |  | < 0.1
3 | Cc1ccc(OCC2CCN2C)cc1C(=O)NC1(c2cc(N)cc3ccccc23)CC1 (stereo not shown) [Compound 496, N-(1-(3-Aminonaphthalen-1-yl)cyclopropyl)-2-methyl-5-((1-methylazetidin-2-yl)methoxy)benzamide] |  | < 0.1
4 | Cc1cc(C2(NC(=O)c3cc(OCC(C)N)ccc3C)CC2)c2cccnc2c1 (stereo not shown) [Compound 497, 5-(2-Aminopropoxy)-2-methyl-N-(1-(7-methylquinolin-5-yl)cyclopropyl)benzamide] |  | < 0.1
5 | Cc1ccc(OCC(C)N)cc1C(=O)NC1(c2cccc3ncccc23)CC1 (stereo not shown) [Compound 498, 5-(2-Aminopropoxy)-2-methyl-N-(1-(quinolin-5-yl)cyclopropyl)benzamide] | < 0.1 | 
6 | CNCCOc1ccc(C)c(C(=O)NC2(c3cccc4ccccc34)CN(C)C2)c1 [Compound 499, 2-Methyl-N-(1-methyl-3-(naphthalen-1-yl)azetidin-3-yl)-5-(2-(methylamino)ethoxy)benzamide] |  | > 5
7 | CC(=O)Nc1cc(C2(NC(=O)c3cc(OCC4CCN4C)ccc3C)CC2)c2ccccc2c1 (stereo not shown) [Compound 500, N-(1-(3-Acetamidonaphthalen-1-yl)cyclopropyl)-2-methyl-5-((1-methylazetidin-2-yl)methoxy)benzamide] | < 0.1 | 
8 | Cc1cc(C2(NC(=O)c3cc(OCC4CCN4C)ccc3C)CC2)c2ccccc2c1 (stereo not shown) [Compound 501, 2-Methyl-5-((1-methylazetidin-2-yl)methoxy)-N-(1-(3-methylnaphthalen-1-yl)cyclopropyl)benzamide] |  | < 0.1
9 | Cc1ccc(OCC(C)N)cc1C(=O)NC1(c2cc(-c3ccc(Cl)s3)cc3ccccc23)CC1 (stereo not shown) [Compound 502, 5-(2-Aminopropoxy)-N-(1-(3-(5-chlorothiophen-2-yl)naphthalen-1-yl)cyclopropyl)-2-methylbenzamide] | < 0.1 | 
10 | C=CCc1cc(C2(NC(=O)c3cc(OCC4CCN4C)ccc3C)CC2)c2ccccc2c1 (stereo not shown) [Compound 503, N-(1-(3-Allylnaphthalen-1-yl)cyclopropyl)-2-methyl-5-((1-methylazetidin-2-yl)methoxy)benzamide] | < 0.1 | 
11 | CCCc1cc(C2(NC(=O)c3cc(OCC4CCN4C)ccc3C)CC2)c2ccccc2c1 (stereo not shown) [Compound 504, 2-Methyl-5-((1-methylazetidin-2-yl)methoxy)-N-(1-(3-propylnaphthalen-1-yl)cyclopropyl)benzamide] | < 0.1 | 
12 | Cc1ccc(N2CCN(CCO)CC2)cc1C(=O)NC1(c2cccc3ccccc23)CC1 [Compound 505, 5-(4-(2-Hydroxyethyl)piperazin-1-yl)-2-methyl-N-(1-(naphthalen-1-yl)cyclopropyl)benzamide] |  | < 0.1
13 | Cc1ccc(N2C[C@@H](C)N[C@@H](C)C2)cc1C(=O)NC1(c2cccc3ccccc23)CC1 [Compound 506, 5-((3S,5R)-3,5-Dimethylpiperazin-1-yl)-2-methyl-N-(1-(naphthalen-1-yl)cyclopropyl)benzamide] | < 0.1 | 
14 | Cc1ccc(OCC2CCN2C)cc1C(=O)NC1(c2c3ccccc3cc3ccccc23)CC1 (stereo not shown) [Compound 507, N-(1-(Anthracen-9-yl)cyclopropyl)-2-methyl-5-((1-methylazetidin-2-yl)methoxy)benzamide] | 0.1 to 1 | 
15 | C=C(C)c1cc(C2(NC(=O)c3cc(OCC4CCN4C)ccc3C)CC2)c2ccccc2c1 (stereo not shown) [Compound 508, 2-Methyl-5-((1-methylazetidin-2-yl)methoxy)-N-(1-(3-(prop-1-en-2-yl)naphthalen-1-yl)cyclopropyl)benzamide] |  | < 0.1
16 | Cc1ccc(OCC2CCN2C)cc1C(=O)NC1(c2cccc3cnc(O)cc23)CC1 (stereo not shown) [Compound 509, N-(1-(3-Hydroxyisoquinolin-5-yl)cyclopropyl)-2-methyl-5-((1-methylazetidin-2-yl)methoxy)benzamide] |  | 0.1 to 1
17 | COc1cc(C2(NC(=O)c3cc(OC[C@H]4C[C@H](F)CN4)ccc3C)CC2)c2ccccc2c1 [Compound 510, 5-(((2R,4S)-4-Fluoropyrrolidin-2-yl)methoxy)-N-(1-(3-methoxynaphthalen-1-yl)cyclopropyl)-2-methylbenzamide] | < 0.1 | 
18 | COc1cc(C2(NC(=O)c3cc(OC[C@@H]4CCN4)ccc3C)CC2)c2cccnc2c1 [Compound 511, (S)-5-(Azetidin-2-ylmethoxy)-N-(1-(7-methoxyquinolin-5-yl)cyclopropyl)-2-methylbenzamide] |  | < 0.1
19 | COc1cc(C2(NCc3cc(OCCN)ccc3C)CC2)c2cccnc2c1 [Compound 513] | < 0.1 | 
20 | Cc1ccc(OCC2CCN2C)cc1C(=O)NC1(c2cc(-c3ccc(Cl)s3)cc3ccccc23)CC1 (stereo not shown) [Compound 514, N-(1-(3-(5-Chlorothiophen-2-yl)naphthalen-1-yl)cyclopropyl)-2-methyl-5-((1-methylazetidin-2-yl)methoxy)benzamide] | < 0.1 | 
21 | CCc1cc(C2(NC(=O)c3cc(OCC4CCN4C)ccc3C)CC2)c2ccccc2c1 (stereo not shown) [Compound 516, N-(1-(3-Ethylnaphthalen-1-yl)cyclopropyl)-2-methyl-5-((1-methylazetidin-2-yl)methoxy)benzamide] | < 0.1 | 
22 | C=Cc1cc(C2(NC(=O)c3cc(OCC4CCN4C)ccc3C)CC2)c2ccccc2c1 (stereo not shown) [Compound 517, 2-Methyl-5-((1-methylazetidin-2-yl)methoxy)-N-(1-(3-vinylnaphthalen-1-yl)cyclopropyl)benzamide] | < 0.1 | 
23 | Cc1ccc(OCC2CCN2C)cc1C(=O)NC1(c2cc(-c3ccc(F)cc3)cc3ccccc23)CC1 (stereo not shown) [Compound 518, N-(1-(3-(4-Fluorophenyl)naphthalen-1-yl)cyclopropyl)-2-methyl-5-((1-methylazetidin-2-yl)methoxy)benzamide] | < 0.1 | 
24 | Cc1ccc(OCC2CCN2C)cc1C(=O)NC1(c2cc(C(N)=O)cc3ccccc23)CC1 (stereo not shown) [Compound 520, 4-(1-(2-Methyl-5-((1-methylazetidin-2-yl)methoxy)benzamido)cyclopropyl)-2-naphthamide] |  | < 0.1
25 | Cc1ccc(OCC2CCN2C)cc1C(=O)NC1(c2cc(C(C)C)cc3ccccc23)CC1 (stereo not shown) [Compound 521, N-(1-(3-Isopropylnaphthalen-1-yl)cyclopropyl)-2-methyl-5-((1-methylazetidin-2-yl)methoxy)benzamide] |  | < 0.1
26 | CC(c1cccc2cnccc12)N1CCC(C(=O)NCc2cccc(F)c2)CC1 (stereo not shown) [Compound 522, N-(3-Fluorobenzyl)-1-(1-(isoquinolin-5-yl)ethyl)piperidine-4-carboxamide] |  | > 5
27 | COc1cc(C(C)N2CCC(C(=O)NCc3cccc(F)c3)CC2)c2ccccc2c1 (stereo not shown) [Compound 524, N-(3-Fluorobenzyl)-1-(1-(3-methoxynaphthalen-1-yl)ethyl)piperidine-4-carboxamide] |  | 0.1 to 1
28 | CNCCOc1ccc(C)c(C(=O)NC2(c3cc(OC)cc4ncccc34)CC2)c1 [Compound 526, N-(1-(7-Methoxyquinolin-5-yl)cyclopropyl)-2-methyl-5-(2-(methylamino)ethoxy)benzamide] |  | < 0.1

Source: patent publication US20250025443A1, “COMPOUNDS AND METHODS FOR TREATING CORONA VIRUSES” (CLEAR CREEK BIO, INC., priority 2021, published 2025)
